In one assay the test system is parental BaF3 cells. Kind of assay: Proliferation of parental (untransformed) Ba/F3 cells maintained with IL3. The following applies: Mus musculus. It counts as cell-based, murine. The gist of the method: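 Untransformed murine Ba/F3 cells kept in RPMI/10% FCS with 5 ng/ml murine IL3, plated at 2000 cells/well and exposed to 12 concentrations of compound for 48 h at 37 °C. Viability read by Bright-Glo luciferase luminescence; IC50 from linear regression of % inhibition.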

In assay [1] the target is T1, full length rTrkA and mNGF (Rattus norvegicus, UniProt P35739).
T1 construct: co-expressing full length rTrkA and mNGF; expressed in transfected cells; host or cells: Ba/F3 cells
T1 sequence (P35739 33-799): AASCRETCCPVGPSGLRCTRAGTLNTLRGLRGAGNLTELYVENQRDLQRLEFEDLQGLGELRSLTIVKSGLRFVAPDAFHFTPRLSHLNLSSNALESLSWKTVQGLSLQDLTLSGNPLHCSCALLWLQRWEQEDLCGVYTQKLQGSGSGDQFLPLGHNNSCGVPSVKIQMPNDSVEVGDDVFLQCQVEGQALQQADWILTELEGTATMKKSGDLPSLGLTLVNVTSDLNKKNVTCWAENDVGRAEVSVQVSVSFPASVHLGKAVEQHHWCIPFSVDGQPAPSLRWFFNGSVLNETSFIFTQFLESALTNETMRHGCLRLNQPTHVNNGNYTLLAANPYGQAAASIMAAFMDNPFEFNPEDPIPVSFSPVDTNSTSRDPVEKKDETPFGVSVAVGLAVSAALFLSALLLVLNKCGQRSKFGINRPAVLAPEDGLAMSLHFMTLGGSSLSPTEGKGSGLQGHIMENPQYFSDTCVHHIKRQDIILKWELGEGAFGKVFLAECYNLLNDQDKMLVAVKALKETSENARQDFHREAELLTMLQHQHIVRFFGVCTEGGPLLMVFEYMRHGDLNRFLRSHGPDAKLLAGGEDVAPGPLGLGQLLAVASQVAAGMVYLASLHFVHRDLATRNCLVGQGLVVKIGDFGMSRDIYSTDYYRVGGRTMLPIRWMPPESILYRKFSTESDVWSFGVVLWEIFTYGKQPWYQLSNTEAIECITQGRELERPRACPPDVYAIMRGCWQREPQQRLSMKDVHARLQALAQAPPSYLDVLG
T1 sequence (P01139 122-241 partner): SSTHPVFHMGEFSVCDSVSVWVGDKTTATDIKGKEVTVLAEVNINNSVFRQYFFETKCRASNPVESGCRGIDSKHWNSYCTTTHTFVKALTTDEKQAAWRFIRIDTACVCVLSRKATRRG
The assay can be described thus: Inhibition of proliferation of Ba/F3 cells co-expressing full length rTrkA and mNGF (BaF3/TrkA-NFG). The class given is cell-based. The following applies: for IC50 in BaF3/TrkA-NFG CTG cellular assay: BaF3/TrkA-NFG cells; for BaF3 TRKA-NGF CTG IC 50: BaF3 TRKA-NGF cells, CTG readout.

Another assay has as its target T2, Tel-TrkB (Homo sapiens, UniProt Q16620).
T2 construct: dimerization domain of Tel (ETV6) transcription factor (fusion partner, human ETV6 P41212); expressed in transfected cells; host or cells: luciferase expressing Ba/F3 murine hematopoietic progenitor cells; the other entry of the earlier key: ETV6 (P41212, Transcription factor ETV6)
Kind of assay: Inhibition of proliferation of Ba/F3 cells expressing Tel-TrkB (BaF3/Tel-TrkB). The class given is cell-based. The gist of the method:
(§1)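 Luciferase-expressing murine Ba/F3 cells transformed with human Tel-TrkA or Tel-TrkB, plated at 2000 cells/well in IL3-free RPMI/10% FBS. Exposed to 12 concentrations of 3-fold serially diluted compound for 48 hours at 37° C, 5% CO2. Bright Glo luminescence read-out, with IC50 from linear regression of percent inhibition.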

The target in assay [2] is T3, Tel-TrkA (Homo sapiens, UniProt P04629).
T3 construct: dimerization domain of Tel (ETV6) transcription factor (fusion partner, human ETV6 P41212); expressed in transfected cells; host or cells: luciferase expressing Ba/F3 murine hematopoietic progenitor cells; the other entry of the earlier key: ETV6 (P41212, Transcription factor ETV6)
T3 sequence (P04629 510-796 limits assumed): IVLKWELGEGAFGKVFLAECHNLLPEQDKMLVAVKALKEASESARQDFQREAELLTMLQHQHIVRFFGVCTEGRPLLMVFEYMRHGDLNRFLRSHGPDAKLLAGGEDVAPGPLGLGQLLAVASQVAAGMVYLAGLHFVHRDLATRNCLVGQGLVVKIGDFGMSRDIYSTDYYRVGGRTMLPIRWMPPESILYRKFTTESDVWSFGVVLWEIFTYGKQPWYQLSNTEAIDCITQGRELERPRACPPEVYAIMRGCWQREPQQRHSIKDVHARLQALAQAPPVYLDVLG
The assay can be described thus: Inhibition of proliferation of Ba/F3 cells expressing Tel-TrkA (BaF3/Tel-TrkA, luciferase/Bright Glo readout). It counts as cell-based. As to conditions: read-out: IC50 in BaF3/Tel-TrkA CTG cellular assay.

The test system of a further assay is KM12 luc. Kind of assay: KM12 luc cell proliferation assay (Table 8). It counts as cell-based. As to conditions: KM12 luc cells; read-out: KM12 luc IC 50.
In another assay the target is T4, Tel-TrkC (Homo sapiens, UniProt Q16288).
T4 construct: The cells also express luciferase as the viability read-out; it is not fused to the kinase; P41212 (Transcription factor ETV6)
T4 sequence (Q16288 whole entry, the tested form may be a part): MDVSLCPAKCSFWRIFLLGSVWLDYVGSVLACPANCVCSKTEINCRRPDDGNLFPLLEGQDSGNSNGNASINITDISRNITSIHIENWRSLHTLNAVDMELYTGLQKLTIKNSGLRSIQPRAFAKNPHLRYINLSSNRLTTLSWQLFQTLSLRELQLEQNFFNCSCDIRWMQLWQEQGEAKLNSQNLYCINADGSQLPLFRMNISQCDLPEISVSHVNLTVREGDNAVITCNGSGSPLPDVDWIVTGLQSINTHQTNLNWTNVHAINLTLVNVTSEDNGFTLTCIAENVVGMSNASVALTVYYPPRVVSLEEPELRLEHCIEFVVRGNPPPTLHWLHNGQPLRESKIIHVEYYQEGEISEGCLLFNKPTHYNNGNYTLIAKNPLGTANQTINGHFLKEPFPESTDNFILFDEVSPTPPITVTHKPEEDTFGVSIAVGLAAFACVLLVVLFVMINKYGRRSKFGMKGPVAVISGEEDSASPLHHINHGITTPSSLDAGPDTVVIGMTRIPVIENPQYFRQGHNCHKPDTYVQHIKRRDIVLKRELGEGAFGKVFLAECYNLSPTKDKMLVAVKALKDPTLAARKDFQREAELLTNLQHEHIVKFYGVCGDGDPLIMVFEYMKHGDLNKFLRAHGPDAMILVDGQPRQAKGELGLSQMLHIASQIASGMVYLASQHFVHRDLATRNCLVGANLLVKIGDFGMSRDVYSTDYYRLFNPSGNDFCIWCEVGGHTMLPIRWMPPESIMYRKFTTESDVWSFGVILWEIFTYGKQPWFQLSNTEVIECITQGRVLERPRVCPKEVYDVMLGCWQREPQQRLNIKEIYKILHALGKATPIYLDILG
Kind of assay: Inhibition of proliferation of Ba/F3 cells expressing Tel-TrkC (BaF3/Tel-TrkC). It counts as cell-based. As to conditions: read-out: Ba/F3 Tel-TrkC IC 50. The method, then: Test compounds were dissolved in DMSO (10 mM) and transferred into 1.4 mL flat bottom or V-shaped Matrix tubes carrying a unique 2D matrix chip by individual compound hubs. The numbers of these chips were distinctively linked to the individual compound identification numbers. The stock solutions were stored at −20° C. if not used immediately. For the test procedure the vials were defrosted and identified by a scanner whereby a working sheet is generated that guides the subsequent working steps.
Compound dilutions were made in 384 well plates. This format enabled the assay of maximally 28 individual test compounds at 12 concentrations (single points) including 2 reference compounds. The dilution protocol included the production of pre-dilution plates, master plates and assay plates: • Compound plates: 30 μL of individual compound (10 mM) DMSO solution including standard compound were transferred into columns 1 and 13 of a 384 well plate. 20 μL of DMSO were added to the rest of the wells and the compounds were serially diluted (1:3) by transferring 10 μL from a well in column 1 or 13 to the next well in column 2 or 14 respectively and successively with the help of a Minitrack robot. • Assay plates: Identical assay plates were then prepared by adding […] each of compound dilutions of the compound plates into 384-well “assay plates”. In the following the compounds were mixed with 50 μL of assays components (cells or enzyme) and tested for their inhibitory activity.
Compounds of Formula (I) were tested for their antiproliferative effect on Ba/F3 cells expressing either Tel-TrkA, Tel-TrkB or Tel-TrkC and an additional panel of 34 selected diverse kinases activated by fusion to the dimerizing partners Bcr or Tel (Abl, A1K, BMX, EphA3, EphB2, FGFR2, FGFR3, FGFR4, FGR, FLT1, FLT3, FLT4, FMS, IGF1R, InsR, JAK1, JAK2, JAK3, KDR, Kit, Lck, Lyn, MER, MET, PDGFRb, RET, RON, Ros-1, Src, Aurora, TIE2, TYK2, Tie1, ZAP70). The antiproliferative effect of these compounds on the different cell lines and on the non transformed cells were tested at 12 different concentrations of 3-fold serially diluted compounds in 384 well plates as described above (in media lacking IL3). The IC50 values of the compounds the different cell lines were determined from dose response curves.
The cell line used is the luciferase expressing Ba/F3 murine hematopoietic progenitor cell line transformed with human Tel-TrkA, Tel-TrkB or Tel-TrkC cDNAs (Ba/F3 EN A/B/C). These cells maintained in RPMI/10% fetal bovine serum (RPMI/FCS) supplemented with penicillin 50 mg/mL, streptomycin 50 mg/mL and L-glutamine […]. Untransformed Ba/F3 cells were similarly maintained with the addition 5 ng/ml of murine recombinant IL3. 50 μl of a Ba/F3 or Ba/F3 EN A/B/C cell suspension were plated in Greiner 384 well microplates (white)) at a density of 2000 cells per well. 50 nl of serially diluted test compound (10-0.0001 mM in DMSO solution) is added to each well. The cells were incubated for 48 hours at 37° C., 5% CO2. 25 μl of Bright Glo® (Promega) luciferase substrate is added to each well. The emited luminiscence is quantified using the ACQUEST™ luminescence system (Molecular Devices). IC50 values were calculated by linear regression analysis of the percentage inhibition of each compound at 12 concentrations.

The target in assay [3] is T3, Tel-TrkA. Kind of assay: Inhibition of proliferation of Ba/F3 cells expressing Tel-TrkA (BaF3/Tel-TrkA, luciferase/Bright Glo readout). The following applies: read-out: Ba/F3 Tel-TrkA IC 50. It counts as cell-based. The gist of the method: as §1
[4] abbreviates: BaF3, parental BaF3 cells, read-out: IC50 in BaF3 CTG cellular assay.
The mark [5] stands for this setting: BaF3/Tel-TrkB cells, read-out: IC50 in BaF3/Tel-TrkB CTG cellular assay.
The mark [6] stands for this setting: BaF3, parental Ba/F3 cells, read-out: Ba/F3 IC 50.
Where [7] appears, read: Ba/F3 Tel-TrkB cells, read-out: Ba/F3 Tel-TrkB IC 50.

These results are taken from patent US8507488B2, “Fused nitrogen containing heterocycles and compositions thereof as kinase inhibitors” (IRM LLC, priority 2008, dated 2013).

Read-outs that look alike come from different tables or passages of the source.

T2 sequence (Q16620 538-822 limits assumed): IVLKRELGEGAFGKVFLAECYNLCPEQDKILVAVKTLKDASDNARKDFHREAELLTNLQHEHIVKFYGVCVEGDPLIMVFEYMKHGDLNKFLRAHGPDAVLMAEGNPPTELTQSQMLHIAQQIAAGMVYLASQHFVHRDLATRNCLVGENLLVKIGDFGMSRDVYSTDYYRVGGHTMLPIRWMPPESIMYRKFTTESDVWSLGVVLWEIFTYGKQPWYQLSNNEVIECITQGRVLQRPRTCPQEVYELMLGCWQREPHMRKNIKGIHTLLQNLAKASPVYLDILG

For the compound `O[C@@H]1CCN(c2nccc(-c3cccc(-c4cnc5ccc(N6CCC[C@@H]6c6cccc(F)c6)nn45)n3)n2)C1` [Compound 14-4, (R)-1-(4-(6-(6-((R)-2-(3-fluorophenyl)pyrrolidin-1-yl)imidazo[1,2-b]pyridazin-3-yl)pyridin-2-yl)pyrimidin-2-yl)pyrrolidin-3-ol], the IC50 in the assay with parental BaF3 cells (setting [4]) was 4070 nM; on Tel-TrkB (setting [5]), 3.3 nM; on Tel-TrkA [2], 2.2 nM. The “IC50 in BaF3/TrkA-NFG CTG cellular assay” value in assay [1] is 4.2 nM.
For the compound `OC1CCN(c2cc(-c3cccc(-c4cnc5ccc(N6CCC[C@@H]6c6cccc(F)c6)nn45)n3)ccn2)CC1` [Compound 16-4, (R)-1-(6-(6-(2-(3-fluorophenyl)pyrrolidin-1-yl)imidazo[1,2-b]pyridazin-3-yl)-2,4′-bipyridin-2′-yl)piperidin-4-ol], the IC50 in the assay on parental BaF3 cells (setting [4]) stood at 4410 nM; at Tel-TrkB (setting [5]), 12 nM; on Tel-TrkA [2] it was 5.2 nM. In addition, the “IC50 in BaF3/TrkA-NFG CTG cellular assay” value in assay [1] turned out to be 13 nM.
In the case of `CN1CCN(c2cnc(-c3cnc4ccc(N5CCCC5c5cccc(F)c5)nn34)cn2)CC1` (centres unmarked) [Table 3-Compound 7], the IC50 in the assay with parental BaF3 cells (setting [6]) came out at 5030 nM; with KM12 luc it was 23 nM; at Tel-TrkC, 20 nM; on Tel-TrkA [3], 35 nM; on Tel-TrkB (setting [7]) it was 52 nM. The “BaF3 TRKA-NGF CTG IC 50” value in assay [1] worked out at 27 nM.
For `Fc1cccc(C2CCCN2c2ccc3ncc(-c4ccc5[nH]ccc5c4)n3n2)c1` (centres unmarked) [Table 3-Compound 18], the IC50 in the assay with parental BaF3 cells (setting [6]) was 7230 nM; in the assay on KM12 luc, 24 nM; at Tel-TrkC, 1.4 nM; on Tel-TrkA [3], 13 nM; on Tel-TrkB (setting [7]) it was 10 nM. In assay [1], the “BaF3 TRKA-NGF CTG IC 50” value stood at 20 nM.
As for `N#Cc1ccc(-c2cnc3ccc(N4CCCC4c4cc(F)ccc4F)nn23)cc1OCCN1CCOCC1` (centres unmarked) [Table 5-Compound 17], the IC50 was more than 10000 nM in the assay on parental BaF3 cells (setting [6]); 8.8 nM with KM12 luc; 3.1 nM at Tel-TrkC; 6.4 nM at Tel-TrkA [3]; 15 nM at Tel-TrkB (setting [7]). For the same compound, the “BaF3 TRKA-NGF CTG IC 50” value in assay [1] was 34 nM.
Take `Fc1cccc([C@H]2CCCN2c2ccc3ncc(-c4cccc(N5CCN(c6cccnc6)CC5)n4)n3n2)c1` [Table 7-Compound 255]: the IC50 is more than 11000 nM in the assay on parental BaF3 cells (setting [6]); 6 nM with KM12 luc; 3 nM at Tel-TrkC; 9 nM on Tel-TrkA [3]; 17 nM on Tel-TrkB (setting [7]). For the same compound, the “BaF3 TRKA-NGF CTG IC 50” value in assay [1] is 9 nM.
As to `N#Cc1cccc(-c2cnc3ccc(N4CCC(=O)N4c4cccc(F)c4)nn23)c1` [Table 3-Compound 34], the IC50 in the assay on parental BaF3 cells (setting [6]) is more than 10000 nM; with KM12 luc it was 10 nM; on Tel-TrkC, 130 nM; at Tel-TrkA [3], 1200 nM; at Tel-TrkB (setting [7]), 400 nM. In addition, the “BaF3 TRKA-NGF CTG IC 50” value in assay [1] was 500 nM.
Take `N#Cc1ccc(-c2cnc3ccc(N4CCCC4c4cc(F)ccc4F)nn23)cc1N1CCC(N2CCOCC2)CC1` (centres unmarked) [Table 5-Compound 13]: the IC50 in the assay with parental BaF3 cells (setting [6]) came out at 4840 nM; in the assay on KM12 luc it was 7.5 nM; on Tel-TrkC, 1.7 nM; on Tel-TrkA [3] it was 3.5 nM; at Tel-TrkB (setting [7]) it was 35 nM. The “BaF3 TRKA-NGF CTG IC 50” value in assay [1] stood at 5.3 nM.
Regarding `Fc1cccc(C2CCCN2c2ccc3ncc(-c4cncc(Cl)n4)n3n2)c1` (centres unmarked) [Table 3-Compound 10], the IC50 in the assay with parental BaF3 cells (setting [6]) is more than 10000 nM; with KM12 luc, 94 nM; at Tel-TrkC it was 40 nM; at Tel-TrkA [3], 200 nM; on Tel-TrkB (setting [7]), 100 nM. In addition, the “BaF3 TRKA-NGF CTG IC 50” value in assay [1] stood at 180 nM.
